Measurements taken from patent publication US5352659A, “Endothelin analogs and uses thereof” (Takeda Chemical Industries, priority 1991, dated 1994).
Bridge positions count the residues as written; N and C are the ends. Square brackets hold non-standard residues; d marks the D form. Peptide text beside a SMILES is read from it. Mpa = O=C(O)CCS

Experiments:
endothelin receptor = test: Assay of affinity for receptor (inhibition of 125I-ET-1 binding to porcine myocardial membrane fraction); details: relative to ET-1 = 100
Procedure: Assay of Affinity for Receptor
A membrane fraction prepared from the porcine heart was diluted to 0.15 mg/ml by using a buffer solution for assay, and 100 μl of the resulting suspension of the membrane fraction was poured into each assay tube to use for assay. To this suspension of the membrane fraction was added 2 μl of 5 nM ^125 I labeled endothelin-1 solution. Further, 3 μl of a test peptide solution was added thereto, followed by incubation at a temperature of 25° C. for 1 hour. Then, the resulting suspension was diluted with 900 μl of the buffer solution for assay cooled with ice, and thereafter separated into a supernatant and a precipitate by centrifugation at 12,000×g for 10 minutes. Cell membranes and an endothelin receptor embedded therein were contained in the precipitate, and radioactive iodine-labeled endothelin combined with the receptor was also recovered in the precipitate. Accordingly, the amount of radioactive iodine-labeled endothelin combined with the endothelin receptor was determined by measuring the amount of radioactive iodine contained in the precipitate with a gamma-ray counter.

porcine coronary artery = test: Constrictor activity on porcine coronary smooth muscles; details: for Maximum constriction (% 60 mM KCl): porcine coronary artery strips, normalized to 60 mM KCl response; for Constrictor activity (specific activity): relative to ET-1 = 100, porcine coronary artery
Procedure: (§1) Spiral strips 2 mm×15 mm prepared from the coronary right ramus circumflexus from which the adventitial connective tissues and the endothelial cells were removed were set to 4 ml organ baths. The tension of each strip was detected by a force displacement transducer UL-10GR (Minebea), and recorded by a polygraph (NEC Sanei). The organ baths were maintained at 37° C., and filled with a Krebs-Henseleit solution (composition: 118 mM NaCl, 4.7 mM KCl, 2.5 mM CaCl2, 1.2 mM KH2 PO4, 25.0 mM NaHCO3, 1.2 mM MgSO4, 10.0 mM glucose) gassed with 95% O2 and 5% CO2.
(§2) A tension of 1.25 to 1.5 g was applied to each of the strips, followed by equilibration for 1.5 hours. 60 mM KCl was repeatedly applied thereto at intervals of 30 minutes until the constriction response became constant. After additional equilibration for 1.5 hours, a sample for assay was given thereto. The constriction of the strips was normalized by the constriction response of the individual strips to 60 mM KCl and statistically processed.
(2) As to the antagonistic property of the peptides of the present invention to endothelin, the affinity for an endothelin receptor and the constrictor activity on porcine coronary smooth muscles (according to the method described in (1) described above) were assayed. The affinity for the receptor was assayed by the following method.

[1] = system: porcine coronary smooth muscles
Procedure: (1) Assay of Constrictor Suppressing Activity on Porcine Coronary Smooth Muscles
as §1, §2
pA2 is a negative logarithm value of a molar concentration of a competitive antagonist necessary for shifting in parallel a dose response curve for an active drug (for example, ET-1) alone to the high dose side by a factor of 2.

Structure (SMILES) | Receptor binding activity (specific activity) (endothelin receptor) | Maximum constriction (% 60 mM KCl) (porcine coronary artery) | Constrictor activity (specific activity) (porcine coronary artery) | Relative potency [1] | pA2 [1]
CC[C@H](C)[C@H](NC(=O)[C@H](CC(C)C)NC(=O)[C@@H](NC(=O)[C@H](CC(C)C)NC(=O)[C@H](Cc1c[nH]cn1)NC(=O)[C@@H]1CSSC[C@H](N)C(=O)N[C@@H](CO)C(=O)N[C@H]2CSSC[C@H](NC(=O)[C@H](CCC(=O)O)NC(=O)[C@H](C)NC(=O)[C@H](CC(=O)O)NC(=O)[C@H](CCSC)NC(=O)[C@H](CC(C)C)NC(=O)[C@H](CO)NC(=O)[C@H](CO)NC2=O)C(=O)N[C@@H](C(C)C)C(=O)N[C@@H](Cc2ccc(O)cc2)C(=O)N[C@@H](Cc2ccccc2)C(=O)N1)[C@@H](C)O)C(=O)N[C@@H](Cc1c[nH]c2ccccc12)C(=O)O [Example 10, [Ala^9, Thr^18, Leu^19]-ET-1] (H-CSCSSLMDAECVYFCHLTLIW-OH; disulfide 1-15, 3-11) | 16 | 4 | < 0.1 | 1.6 | 5.9
CC[C@H](C)[C@H](NC(=O)[C@H](CC(C)C)NC(=O)[C@@H](NC(=O)[C@H](CC(C)C)NC(=O)[C@H](Cc1c[nH]cn1)NC(=O)[C@@H]1CSSC[C@H](N)C(=O)N[C@@H](C)C(=O)N[C@H]2CSSC[C@H](NC(=O)[C@H](CCC(=O)O)NC(=O)[C@H](CCCCN)NC(=O)[C@H](CC(=O)O)NC(=O)[C@H](CCSC)NC(=O)[C@H](CC(C)C)NC(=O)[C@H](CO)NC(=O)[C@H](CO)NC2=O)C(=O)N[C@@H](C(C)C)C(=O)N[C@@H](Cc2ccc(O)cc2)C(=O)N[C@@H](Cc2ccccc2)C(=O)N1)[C@@H](C)O)C(=O)N[C@@H](Cc1c[nH]c2ccccc12)C(=O)O [Example 12, [Ala^2, Thr^18, Leu^19]-ET-1] (H-CACSSLMDKECVYFCHLTLIW-OH; disulfide 1-15, 3-11) | 32 | 5 | < 0.1 |  | 6.7
CC[C@H](C)[C@H](NC(=O)[C@H](CC(C)C)NC(=O)[C@@H](NC(=O)[C@H](CC(C)C)NC(=O)[C@H](Cc1c[nH]cn1)NC(=O)[C@@H]1CSSC[C@H](N)C(=O)N[C@@H](CO)C(=O)N[C@H]2CSSC[C@H](NC(=O)[C@H](CCC(=O)O)NC(=O)[C@H](CCCCN)NC(=O)[C@H](CC(=O)O)NC(=O)[C@H](CCSC)NC(=O)[C@H](CC(C)C)NC(=O)[C@H](CO)NC(=O)[C@H](C)NC2=O)C(=O)N[C@@H](C(C)C)C(=O)N[C@@H](Cc2ccc(O)cc2)C(=O)N[C@@H](Cc2ccccc2)C(=O)N1)[C@@H](C)O)C(=O)N[C@@H](Cc1c[nH]c2ccccc12)C(=O)O [Example 13, [Ala^4, Thr^18, Leu^19]-ET-1] (H-CSCASLMDKECVYFCHLTLIW-OH; disulfide 1-15, 3-11) | 57 | 6 | < 0.1 |  | 6.9
CC[C@H](C)[C@H](NC(=O)[C@H](CC(C)C)NC(=O)[C@@H](NC(=O)[C@H](CC(C)C)NC(=O)[C@H](Cc1c[nH]cn1)NC(=O)[C@@H]1CSSC[C@H](N)C(=O)N[C@@H](CO)C(=O)N[C@H]2CSSC[C@H](NC(=O)[C@H](CCC(=O)O)NC(=O)[C@H](CCCCN)NC(=O)[C@H](CC(=O)O)NC(=O)[C@H](C)NC(=O)[C@H](CC(C)C)NC(=O)[C@H](CO)NC(=O)[C@H](CO)NC2=O)C(=O)N[C@@H](C(C)C)C(=O)N[C@@H](Cc2ccc(O)cc2)C(=O)N[C@@H](Cc2ccccc2)C(=O)N1)[C@@H](C)O)C(=O)N[C@@H](Cc1c[nH]c2ccccc12)C(=O)O [Example 16, [Ala^7, Thr^18, Leu^19]-ET-1] (H-CSCSSLADKECVYFCHLTLIW-OH; disulfide 1-15, 3-11) | 62 | 9 | < 0.1 |  | 7.2

Now from value to compound, other results behind:

Receptor binding activity (specific activity) (endothelin receptor) | Structure (SMILES) | Maximum constriction (% 60 mM KCl) (porcine coronary artery) | Constrictor activity (specific activity) (porcine coronary artery) | Relative potency [1] | pA2 [1]
15 | CC[C@H](C)[C@H](NC(=O)[C@H](CC(C)C)NC(=O)[C@H](CO)NC(=O)[C@H](CC(C)C)NC(=O)[C@H](Cc1c[nH]cn1)NC(=O)[C@@H]1CSSC[C@H](N)C(=O)N[C@@H](CO)C(=O)N[C@H]2CSSC[C@H](NC(=O)[C@H](CCC(=O)O)NC(=O)[C@H](CCCCN)NC(=O)[C@H](CC(=O)O)NC(=O)[C@H](CCSC)NC(=O)[C@H](CC(C)C)NC(=O)[C@H](CO)NC(=O)[C@H](CO)NC2=O)C(=O)N[C@@H](C(C)C)C(=O)N[C@@H](Cc2ccc(O)cc2)C(=O)N[C@@H](Cc2ccccc2)C(=O)N1)C(=O)N[C@@H](Cc1c[nH]c2ccccc12)C(=O)O [Example 6, [Ser^18, Leu^19]-ET-1] (H-CSCSSLMDKECVYFCHLSLIW-OH; disulfide 1-15, 3-11) | 1 | < 0.1 | 63 | 7.5
9.5 | CC[C@H](C)[C@H](NC(=O)[C@H](CC(C)C)NC(=O)CNC(=O)[C@H](CC(C)C)NC(=O)[C@H](Cc1c[nH]cn1)NC(=O)[C@@H]1CSSC[C@H](N)C(=O)N[C@@H](CO)C(=O)N[C@H]2CSSC[C@H](NC(=O)[C@H](CCC(=O)O)NC(=O)[C@H](CCCCN)NC(=O)[C@H](CC(=O)O)NC(=O)[C@H](CCSC)NC(=O)[C@H](CC(C)C)NC(=O)[C@H](CO)NC(=O)[C@H](CO)NC2=O)C(=O)N[C@@H](C(C)C)C(=O)N[C@@H](Cc2ccc(O)cc2)C(=O)N[C@@H](Cc2ccccc2)C(=O)N1)C(=O)N[C@@H](Cc1c[nH]c2ccccc12)C(=O)O [Example 8, [Gly^18, Leu^19]-ET-1] (H-CSCSSLMDKECVYFCHLGLIW-OH; disulfide 1-15, 3-11) | 14 | < 0.1 | 10 | 6.7
16 | CC[C@H](C)[C@H](NC(=O)[C@H](CC(C)C)NC(=O)[C@@H](NC(=O)[C@H](CC(C)C)NC(=O)[C@H](Cc1c[nH]cn1)NC(=O)[C@@H]1CSSCCC(=O)N[C@@H](CO)C(=O)N[C@H]2CSSC[C@H](NC(=O)[C@H](CCC(=O)O)NC(=O)[C@H](CCCCN)NC(=O)[C@H](CC(=O)O)NC(=O)[C@H](CCSC)NC(=O)[C@H](CC(C)C)NC(=O)[C@H](CO)NC(=O)[C@H](CO)NC2=O)C(=O)N[C@@H](C(C)C)C(=O)N[C@@H](Cc2ccc(O)cc2)C(=O)N[C@@H](Cc2ccccc2)C(=O)N1)[C@@H](C)O)C(=O)N[C@@H](Cc1c[nH]c2ccccc12)C(=O)O [Example 11, [Mpr^1, Thr^18, Leu^19]-ET-1] ([Mpa]SCSSLMDKECVYFCHLTLIW-OH; disulfide 1-15, 3-11) | 1 | < 0.1 | 6 | 6.5
8.6 | CC[C@H](C)[C@H](NC(=O)[C@H](CC(C)C)NC(=O)[C@@H](NC(=O)[C@H](CC(C)C)NC(=O)[C@H](Cc1c[nH]cn1)NC(=O)[C@@H]1CSSC[C@H](N)C(=O)N[C@@H](CO)C(=O)N[C@H]2CSSC[C@H](NC(=O)[C@H](CCC(=O)O)NC(=O)[C@H](CCCCN)NC(=O)[C@H](CC(=O)O)NC(=O)[C@H](CCSC)NC(=O)[C@H](CC(C)C)NC(=O)[C@H](C)NC(=O)[C@H](CO)NC2=O)C(=O)N[C@@H](C(C)C)C(=O)N[C@@H](Cc2ccc(O)cc2)C(=O)N[C@@H](Cc2ccccc2)C(=O)N1)[C@@H](C)O)C(=O)N[C@@H](Cc1c[nH]c2ccccc12)C(=O)O [Example 14, [Ala^5, Thr^18, Leu^19]-ET-1] (H-CSCSALMDKECVYFCHLTLIW-OH; disulfide 1-15, 3-11) | 6 | < 0.1 | 0.6 | 5.5
11 | CC[C@H](C)[C@H](NC(=O)[C@H](CC(C)C)NC(=O)[C@@H](NC(=O)[C@H](CC(C)C)NC(=O)[C@H](Cc1c[nH]cn1)NC(=O)[C@@H]1CSSC[C@H](N)C(=O)N[C@@H](CO)C(=O)N[C@H]2CSSC[C@H](NC(=O)[C@H](CCC(=O)O)NC(=O)[C@H](CCCCN)NC(=O)[C@H](CC(=O)O)NC(=O)[C@H](CCSC)NC(=O)[C@H](C)NC(=O)[C@H](CO)NC(=O)[C@H](CO)NC2=O)C(=O)N[C@@H](C(C)C)C(=O)N[C@@H](Cc2ccc(O)cc2)C(=O)N[C@@H](Cc2ccccc2)C(=O)N1)[C@@H](C)O)C(=O)N[C@@H](Cc1c[nH]c2ccccc12)C(=O)O [Example 15, [Ala^6, Thr^18, Leu^19]-ET-1] (H-CSCSSAMDKECVYFCHLTLIW-OH; disulfide 1-15, 3-11) | 7 | < 0.1 | 6 | 6.5
